Where two headings read alike, the source gives them in different places.
Tests used:
human GRK5WT = target: T1, human GRK5WT (Homo sapiens, UniProt P34947); experiment: GRK kinase inhibition assay ([γ-32P]-ATP phosphorylation of tubulin or Rho*); type: biochemical; conditions: for change in inhibition potency caused by K3Cit: GRK5 phosphorylation of tubulin and Rho*
T1 construct: human GRK5WT or GRK5D311N (residues 1–590 followed by a hexahistidine tag); hexahistidine (C); made in house; host or cells: E. coli Rosetta (DE3)
Description: GRK inhibition assays were performed in 20 mM Hepes (pH 7.0), 2 mM MgCl2, 0.025% n-dodecyl-β-D-maltoside with 50 nM human GRK5WT as purified previously. […] A range of salt concentrations was added 30 s prior to 5 min reactions initiated by exposing samples to light followed by addition of 5 μM ATP supplemented with radioactive [γ-^32P]-ATP at 60 Ci/mmol (PerkinElmer Life Sciences) at room temperature. […] Reactions were quenched with 4X SDS loading buffer, separated in SDS-PAGE, dried, and read by phosphorimaging and then quantified via a Personal Molecular Imager and Quantity One 1-D Analysis Software. […] At least three replicates were obtained to calculate the mean and standard deviation of IC50 values. See Figure S4 for representative raw and processed data.

GRK2 = target: T2, GRK2 (Homo sapiens, UniProt P25098, S670A); experiment: GRK kinase inhibition assay ([γ-32P]-ATP phosphorylation of tubulin); type: biochemical; conditions: substrate tubulin; for IC50: mean ± SD
T2 construct: Full-length WT GRK5, GRK2, or GRK6 at a final concentration of 2 μM; made in house; host or cells: Sf9 insect cells
T2 sequence (P25098 1-689 S670A): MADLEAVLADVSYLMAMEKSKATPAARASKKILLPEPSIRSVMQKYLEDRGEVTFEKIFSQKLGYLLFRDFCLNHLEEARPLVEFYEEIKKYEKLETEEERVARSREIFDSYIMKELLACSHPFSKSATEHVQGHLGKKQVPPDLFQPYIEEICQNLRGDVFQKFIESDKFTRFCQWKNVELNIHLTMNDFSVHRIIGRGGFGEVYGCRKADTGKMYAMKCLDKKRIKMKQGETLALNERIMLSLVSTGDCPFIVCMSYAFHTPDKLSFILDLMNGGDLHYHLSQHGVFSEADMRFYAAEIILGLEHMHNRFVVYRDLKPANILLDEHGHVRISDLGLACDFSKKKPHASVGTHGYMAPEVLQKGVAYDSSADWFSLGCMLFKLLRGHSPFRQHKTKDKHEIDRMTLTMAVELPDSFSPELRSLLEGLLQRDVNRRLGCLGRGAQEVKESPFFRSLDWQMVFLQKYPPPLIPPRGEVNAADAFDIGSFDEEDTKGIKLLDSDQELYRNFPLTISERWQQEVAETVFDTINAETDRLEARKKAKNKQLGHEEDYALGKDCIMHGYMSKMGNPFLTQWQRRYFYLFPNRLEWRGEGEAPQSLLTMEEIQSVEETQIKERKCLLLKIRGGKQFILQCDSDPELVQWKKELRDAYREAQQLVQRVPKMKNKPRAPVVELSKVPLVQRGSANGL
Description: Following the protocol in Ref. ([19]), pMAL-vector plasmids bearing DNA encoding human GRK5WT or GRK5D311N (residues 1–590 followed by a hexahistidine tag) were transfected into E. coli Rosetta (DE3) and induced with isopropyl β-D-1-thiogalactopyranoside. Cells lysed using an Emulsiflex-C3 were treated with DNase I and 1 mM MgCl2 at room temperature for 10 min before centrifugation at 40,000g. GRK5 in the soluble fraction was then loaded onto a Ni^2+–NTA column for metal-affinity purification. Eluted GRK5 fractions were then loaded onto a tandem HiTrap Q HP-HiTrap SP HP column to capture impurities in the Q HP column, and GRK5 was eluted from the SP column using an NaCl concentration gradient from 100 to 600 mM. […] Purified GRK5 was used directly in crystallization or flash-frozen with liquid nitrogen and stored at −80 °C for later usage. Human GRK2S670A and GRK6FL_pal(−) are expressed in Sf9 insect cells and purified as described previously ([26], [31]). The S670A mutation in GRK2 eliminates a heterogenous mitogen-activated kinase phosphorylation site, and GRK6FL_pal(−) was used to remove palmitoylation sites in order to make expression and purification easier.
GRK inhibition assays were performed in 20 mM Hepes (pH 7.0), 2 mM MgCl2, 0.025% n-dodecyl-β-D-maltoside with 50 nM human GRK5WT as purified previously. […] A range of salt concentrations was added 30 s prior to 5 min reactions initiated by exposing samples to light followed by addition of 5 μM ATP supplemented with radioactive [γ-^32P]-ATP at 60 Ci/mmol (PerkinElmer Life Sciences) at room temperature. […] Reactions were quenched with 4X SDS loading buffer, separated in SDS-PAGE, dried, and read by phosphorimaging and then quantified via a Personal Molecular Imager and Quantity One 1-D Analysis Software. Data were analyzed via GraphPad Prism (GraphPad Software, Inc), and three-parameter dose-dependent curves (Hill coefficient = −1) plotting phosphate transferred against inhibitor concentration were used for the calculation of IC50 values. At least three replicates were obtained to calculate the mean and standard deviation of IC50 values. See Figure S4 for representative raw and processed data.

GRK6 = target: T3, GRK6 (Homo sapiens, UniProt P43250, C561S/C562S/C565S); experiment: as above; type: biochemical; conditions: substrate tubulin; for IC50: mean ± SD
T3 construct: Full-length WT GRK5, GRK2, or GRK6 at a final concentration of 2 μM; made in house; host or cells: Sf9 insect cells

GRK5 = target: T4, GRK5 (Homo sapiens, UniProt P34947); experiment: Differential scanning fluorimetry thermal shift assay; type: binding; conditions: for effect of salt on Tm of ATP·Mg2+-bound GRK5 / effect of salt on Tm of GRK5: increasing salt concentrations; for effect of salt on Tm of GRK5: no ligand; for increase of Tm of GRK5 upon ligand binding: relative to unliganded GRK5, ligand 5 mM, 2 μM GRK5
T4 construct: human GRK5WT or GRK5D311N (residues 1–590 followed by a hexahistidine tag); hexahistidine (C); made in house; host or cells: E. coli Rosetta (DE3)
Description: Samples were mixed with Protein Thermal Shift dye to measure unfolding as a function of temperature. The Tm values were subtracted by the Tm of GRK5 in the same condition without the addition of salt to obtain ΔTm. Error bars correspond to SD (box) from three or more replicates (circles). […] Orange corresponds to GRK5 with Sgv and pink with AMP in buffer alone (20 mM Hepes [pH 7.2], 2 mM MgCl2). A one-tailed t test was used to determine significance (ns: p > 0.05, ∗p ≤ 0.05, ∗∗p ≤ 0.01, ∗∗∗p ≤ 0.001, and ∗∗∗∗p ≤ 0.0001). GRK, G protein–coupled receptor kinase; ns, not significant; Sgv, sangivamycin.
Full-length WT GRK5, GRK2, or GRK6 at a final concentration of 2 μM in the absence or the presence of different ligands were mixed with the Protein Thermal Shift Dye at a final concentration of 1X in buffer containing 20 mM Hepes (pH 7.2), 2 mM MgCl2, and 1 mM TCEP in addition to different concentrations of salts. The melting points were measured using a QuantStudio5 Real-Time PCR System in a 384-well transparent plate with a final reaction volume of 10 μl per well. […] Ligands including ATP, AMP–PNP, ADP, AMP, and Sgv were added at a final concentration of 5 mM. Readouts were measured and analyzed with Protein Thermal Shift Software to obtain Boltzmann Tm values. At least three replicates of individual runs from the same preparation of protein were performed to obtain the mean and standard deviation of Tm values.

[1] = IC50 no K3Cit vs with 2 mM K3Cit, substrate tubulin
[2] = IC50 no K3Cit vs with 6 mM K3Cit, substrate Rho* in ROS
[3] = read-out: IC50 (no K3Cit), substrate Rho* in ROS, without K3Cit, mean and SD
[4] = read-out: IC50 (no K3Cit), substrate tubulin, without K3Cit, mean and SD

T3 sequence (P43250 whole entry C561S/C562S/C565S): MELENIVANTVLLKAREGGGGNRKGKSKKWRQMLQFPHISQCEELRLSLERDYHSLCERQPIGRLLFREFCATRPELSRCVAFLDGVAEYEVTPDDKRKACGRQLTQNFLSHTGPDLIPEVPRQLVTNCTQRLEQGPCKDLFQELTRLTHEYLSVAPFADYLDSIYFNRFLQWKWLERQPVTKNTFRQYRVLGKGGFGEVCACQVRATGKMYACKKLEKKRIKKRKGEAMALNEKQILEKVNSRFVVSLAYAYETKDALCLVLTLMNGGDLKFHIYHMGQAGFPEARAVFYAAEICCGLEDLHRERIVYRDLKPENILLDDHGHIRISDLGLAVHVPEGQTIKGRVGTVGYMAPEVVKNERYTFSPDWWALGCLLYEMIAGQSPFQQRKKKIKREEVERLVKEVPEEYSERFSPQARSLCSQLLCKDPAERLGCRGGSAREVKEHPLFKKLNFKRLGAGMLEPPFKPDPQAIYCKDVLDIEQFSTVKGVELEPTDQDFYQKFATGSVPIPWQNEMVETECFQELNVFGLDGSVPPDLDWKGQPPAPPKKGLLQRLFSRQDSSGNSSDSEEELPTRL
T1 sequence (P34947 whole entry, the tested form may be a part): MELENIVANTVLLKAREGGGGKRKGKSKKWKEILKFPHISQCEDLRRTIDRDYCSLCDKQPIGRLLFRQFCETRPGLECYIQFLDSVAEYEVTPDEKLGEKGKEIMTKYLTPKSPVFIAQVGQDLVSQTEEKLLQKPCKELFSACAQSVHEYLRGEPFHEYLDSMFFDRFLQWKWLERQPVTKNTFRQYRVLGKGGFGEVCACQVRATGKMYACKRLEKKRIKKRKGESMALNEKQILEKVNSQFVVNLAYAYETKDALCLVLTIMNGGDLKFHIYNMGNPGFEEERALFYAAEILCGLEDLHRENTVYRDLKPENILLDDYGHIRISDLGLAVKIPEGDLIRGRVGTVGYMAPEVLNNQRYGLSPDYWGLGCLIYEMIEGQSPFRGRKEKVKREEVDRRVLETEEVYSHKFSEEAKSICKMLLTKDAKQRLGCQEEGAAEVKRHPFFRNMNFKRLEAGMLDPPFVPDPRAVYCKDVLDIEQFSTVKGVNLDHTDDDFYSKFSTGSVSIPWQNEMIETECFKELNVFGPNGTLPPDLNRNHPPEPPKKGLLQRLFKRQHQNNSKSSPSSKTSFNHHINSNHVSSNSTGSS
T4 sequence (P34947 whole entry, the tested form may be a part): as above

Row | Compound | Fold-change (human GRK5WT; [1]) | Fold-change (human GRK5WT; [2]) | GRK2 (Hill slope) (GRK2) | IC50 (GRK2) [µM] | GRK6 (Hill slope) (GRK6) | IC50 (GRK6) [µM] | effect of salt on Tm of ATP·Mg2+-bound GRK5 (GRK5; in the presence of ATP·Mg2+) | effect of salt on Tm of GRK5 (GRK5) | increase of Tm of GRK5 upon ligand binding (GRK5) | also measured
1 | Nc1ncnc2c1ncn2[C@@H]1O[C@H](COP(=O)(O)OP(=O)(O)O)[C@@H](O)[C@H]1O [ADP] | 3 | 1.5 |  |  |  |  |  |  |  | change in inhibition potency caused by K3Cit (human GRK5WT): did not cause changes; IC50 (human GRK5WT; [3]): 56 ± 6 µM; IC50 (human GRK5WT; [4]): 28 ± 1 µM
2 | [Cl-].[Na+] [NaCl] |  |  | −1.2 | 21000 ± 2000 | −1.3 | 8000 ± 7000 | decreased | reduced it |  | 
3 | Nc1ncnc2c1ncn2[C@@H]1O[C@H](COP(=O)(O)O)[C@@H](O)[C@H]1O [AMP] | 1.5 | 2 |  |  |  |  |  |  | does not stabilize GRK5 as much as Sgv | change in inhibition potency caused by K3Cit (human GRK5WT): did not cause changes; IC50 (human GRK5WT; [3]): 1000 ± 100 µM; IC50 (human GRK5WT; [4]): 700 ± 200 µM
4 | O=C([O-])CC(O)(CC(=O)[O-])C(=O)[O-].[Na+].[Na+].[Na+] [Na3Cit, sodium citrate] |  |  | −1.6 | 700 ± 200 | −1.2 | 1300 ± 900 |  |  |  | 
5 | NC(=O)c1cn([C@@H]2O[C@H](CO)[C@@H](O)[C@H]2O)c2ncnc(N)c12 [Sgv, sangivamycin] | 8 | 6 |  |  |  |  |  |  | 5 °C | reduction of the apparent IC50 by K3Cit (human GRK5WT; GRK5 phosphorylation of tubulin, 2 mM K3Cit): eightfold; IC50 (human GRK5WT; IC50 (no K3Cit), substrate Rho* in ROS, without K3Cit, mean and SD): 4.5 ± 0.5 µM; IC50 (human GRK5WT; IC50 (no K3Cit), substrate tubulin, without K3Cit, mean and SD): 11 ± 3 µM; increase of potency of inhibition by K3Cit (human GRK5WT; tubulin and receptor Rho* phosphorylation): ~8 fold
6 | [Cl-].[K+] [KCl] |  |  | −1.6 | 20000 ± 2000 | −2.3 | 14000 ± 4000 | decreased | did not increase GRK5 stability at any concentration |  | lower potency than the corresponding citrate salts (human GRK5WT; GRK5, tubulin as the substrate): about 35 fold; GRK5 (Hill slope) (human GRK5WT; substrate Rho* (LMNG)): −1.6; IC50 (human GRK5WT; substrate Rho* (LMNG), mean ± SD, read-out: GRK5 IC50): 11000 ± 2000 µM; GRK5 (Hill slope) (human GRK5WT; substrate Rho* (ROS)): −1.9; IC50 (human GRK5WT; substrate Rho* (ROS), mean ± SD, read-out: GRK5 IC50): 18000 ± 10000 µM; GRK5 (Hill slope) (human GRK5WT; substrate tubulin): −1.7; IC50 (human GRK5WT; substrate tubulin, mean ± SD, read-out: GRK5 IC50): 55000 ± 6000 µM
7 | Nc1ncnc2c1ncn2[C@@H]1O[C@H](COP(=O)(O)OP(=O)([O-])OP(=O)([O-])O)[C@@H](O)[C@H]1O.[Mg+2] [ATP·Mg^2+] |  |  |  |  |  |  |  |  | 9 °C | 
8 | O.O=C([O-])CC(O)(CC(=O)[O-])C(=O)[O-].[K+].[K+].[K+] [K3Cit, potassium citrate tribasic monohydrate] |  |  | −1.3 | 800 ± 500 | −0.9 | 900 ± 500 | biphasic behavior | raised the Tm of GRK5 proportionally |  | decrease of Tm of GRK5 (GRK5; in the presence of ATP·Mg2+, 20 mM K3Cit): 2 to 3 °C; effect of salt on Tm of Sgv-bound GRK5 (GRK5; in the presence of Sgv): further increased

— paper PMC12268638, “Structural insights into the catalytic cycle of G protein–coupled receptor kinase 5 and a possible regulatory site for potassium ion” (The Journal of Biological Chemistry, 2025)
